We go through 21 compounds from patent US11731976B2, “3-(ethoxydifluoromethyl)-6-(5-fluoro-6-(2,2,2-trifluoroethoxy)pyridin-3-yl)-[1,2,4]triazolo[4,3-a]pyridine as an ion channel modulator” (Praxis Precision Medicines, Inc., priority 2018, dated 2023).

For orientation: inhibition means the percentage by which the read-out fell short of the control.

T1 sequence (Q9UQD0 whole entry): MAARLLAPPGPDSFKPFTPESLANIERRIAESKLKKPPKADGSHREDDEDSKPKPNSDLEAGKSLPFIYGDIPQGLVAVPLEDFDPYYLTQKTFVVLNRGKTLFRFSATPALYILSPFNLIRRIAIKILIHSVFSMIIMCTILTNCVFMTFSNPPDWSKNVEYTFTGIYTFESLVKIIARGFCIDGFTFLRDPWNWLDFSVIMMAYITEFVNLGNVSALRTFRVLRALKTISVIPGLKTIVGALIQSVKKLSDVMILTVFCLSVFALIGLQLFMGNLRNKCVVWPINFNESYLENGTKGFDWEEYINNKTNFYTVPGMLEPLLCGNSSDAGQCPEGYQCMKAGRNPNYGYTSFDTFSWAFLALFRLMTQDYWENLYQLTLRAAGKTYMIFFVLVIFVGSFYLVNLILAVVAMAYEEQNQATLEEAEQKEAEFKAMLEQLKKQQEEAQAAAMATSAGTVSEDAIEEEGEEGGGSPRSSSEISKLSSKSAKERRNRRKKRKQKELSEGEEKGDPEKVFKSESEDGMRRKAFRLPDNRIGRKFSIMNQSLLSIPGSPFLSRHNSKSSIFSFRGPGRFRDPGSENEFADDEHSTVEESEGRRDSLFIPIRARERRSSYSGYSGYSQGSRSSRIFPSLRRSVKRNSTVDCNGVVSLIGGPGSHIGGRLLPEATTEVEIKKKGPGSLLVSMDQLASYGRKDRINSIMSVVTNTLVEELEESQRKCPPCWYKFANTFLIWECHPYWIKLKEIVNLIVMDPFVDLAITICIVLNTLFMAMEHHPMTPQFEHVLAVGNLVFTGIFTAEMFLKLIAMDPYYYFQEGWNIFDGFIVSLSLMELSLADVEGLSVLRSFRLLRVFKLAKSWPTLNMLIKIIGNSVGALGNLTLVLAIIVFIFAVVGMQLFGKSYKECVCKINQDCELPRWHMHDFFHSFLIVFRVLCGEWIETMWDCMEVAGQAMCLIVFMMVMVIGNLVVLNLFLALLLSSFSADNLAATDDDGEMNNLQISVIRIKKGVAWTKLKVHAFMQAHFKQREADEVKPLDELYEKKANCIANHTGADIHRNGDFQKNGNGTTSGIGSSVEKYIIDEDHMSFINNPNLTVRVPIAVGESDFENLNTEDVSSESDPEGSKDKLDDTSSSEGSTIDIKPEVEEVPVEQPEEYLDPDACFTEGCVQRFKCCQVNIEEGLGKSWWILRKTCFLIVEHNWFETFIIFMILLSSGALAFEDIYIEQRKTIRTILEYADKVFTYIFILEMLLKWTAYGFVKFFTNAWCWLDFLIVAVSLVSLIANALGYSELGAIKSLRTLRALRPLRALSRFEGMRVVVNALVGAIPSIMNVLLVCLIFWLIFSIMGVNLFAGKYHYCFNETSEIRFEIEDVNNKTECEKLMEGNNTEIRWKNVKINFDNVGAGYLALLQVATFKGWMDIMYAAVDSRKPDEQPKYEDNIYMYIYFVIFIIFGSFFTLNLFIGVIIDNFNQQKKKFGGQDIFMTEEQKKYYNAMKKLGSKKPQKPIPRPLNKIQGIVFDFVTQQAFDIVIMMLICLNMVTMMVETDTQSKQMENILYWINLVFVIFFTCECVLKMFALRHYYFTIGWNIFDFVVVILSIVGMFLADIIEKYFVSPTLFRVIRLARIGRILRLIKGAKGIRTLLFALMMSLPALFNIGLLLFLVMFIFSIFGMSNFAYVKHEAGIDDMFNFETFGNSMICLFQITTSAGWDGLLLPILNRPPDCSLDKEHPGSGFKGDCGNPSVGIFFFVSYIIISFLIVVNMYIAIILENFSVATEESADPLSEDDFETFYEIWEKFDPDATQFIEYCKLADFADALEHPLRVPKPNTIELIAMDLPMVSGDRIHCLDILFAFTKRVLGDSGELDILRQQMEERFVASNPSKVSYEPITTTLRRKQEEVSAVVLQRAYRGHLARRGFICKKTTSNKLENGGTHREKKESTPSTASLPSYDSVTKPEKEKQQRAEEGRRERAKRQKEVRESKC

The test addresses T1, human NaV1.6 (hNaV1.6) (Homo sapiens, UniProt Q9UQD0).
T1 construct: expressed in transfected cells; host or cells: HEK-293
In words: Modulation of late sodium current (INaL), PatchXpress electrophysiology, HEK-293 cells expressing hNaV1.6. The format is cell-based. Conditions: HEK293, late current evoked by 300 nM ATX-II, read-out: NaV 1.6 Assay Data: percent inhibition of INaL at hNaV1.6. The method, then: Functional characterization of exemplary compounds to modulate INaL expressed by the NaV1.6 voltage-gated sodium channel was accomplished using the PatchXpress™ high throughput electrophysiology platform (Molecular Devices, Sunnyvale, Calif.). HEK-293 cells expressing recombinant, human NaV1.6 (hNaV1.6) were grown in DMEM/high-glucose Dulbecco's modified, 10% FBS, 2 mM sodium pyruvate, 10 mM HEPES and 400 μg/mL G418. Cells were grown to 50%-80% confluency prior to harvesting. Trypsinized cells were washed, allowed to recover for 1 hour and then resuspended in extracellular recording solution at a concentration of 1×10^6 cells/ml. The onboard liquid handling facility of the PatchXpress was used for dispensing cells and applying test compounds. NaV late currents were evoked by the application of 300 nM ATX-II. INaL was evoked by depolarizing pulses to 0 mV for 200 ms from a non-inactivating holding potential (e.g., −120 mV) at a frequency of 0.1 Hz. INaL amplitude and stability were determined by analyzing the mean current amplitude over the final 20 ms of the test pulse. Following steady state block with exemplary compounds (e.g., as described herein), a Na+ free solution containing an impermeant cation (e.g., Choline or NDMG) was added to confirm the identify of the sodium current. Percent steady-state inhibition of INaL was calculated as: [(INaL_compound)/(INaL_control)]*100, where INaL_compound and INaL_control represent INaL recorded in the presence or absence of compound, respectively.
In the case of `CCOC(F)(F)c1nnc2cnc(-c3cnc(O[C@@H](C)C(F)(F)F)c(F)c3)c(C)n12` [Compound 67, 3-[ethoxy(difluoro)methyl]-6-[5-fluoro-6-[(1S)-2,2,2-trifluoro-1-methyl-ethoxy]-3-pyridyl]-5-methyl-[1,2,4]triazolo[4,3-a]pyrazine], the inhibition at 1 µM is more than 70%. Turning to `COC(F)(F)c1nnc2cc(C)c(-c3cnc(O[C@@H](C)C(F)(F)F)c(F)c3)nn12` [Compound 68, 3-[difluoro(methoxy)methyl]-6-[5-fluoro-6-[(1S)-2,2,2-trifluoro-1-methyl-ethoxy]-3-pyridyl]-7-methyl-[1,2,4]triazolo[4,3-b]pyridazine], the inhibition at 1 µM was more than 70%.

As to `COCc1nnc2cc(C)c(-c3cnc(OC(C)(C)C(F)(F)F)c(F)c3)nn12` [Compound 69, 6-[5-fluoro-6-(2,2,2-trifluoro-1,1-dimethyl-ethoxy)-3-pyridyl]-3-(methoxymethyl)-7-methyl-[1,2,4]triazolo[4,3-b]pyridazine], the inhibition at 1 µM is 30 to 70%. In the case of `COCc1nnc2cc(C)c(-c3cnc(O[C@@H](C)C(F)(F)F)c(F)c3)nn12` [Compound 70, 6-[5-fluoro-6-[(1S)-2,2,2-trifluoro-1-methyl-ethoxy]-3-pyridyl]-3-(methoxymethyl)-7-methyl-[1,2,4]triazolo[4,3-b]pyridazine], the inhibition at 1 µM is less than 30%. In the case of `COCc1nnc2cc(C)c(-c3cnc(OCC(F)(F)F)c(F)c3)nn12` [Compound 71, 6-[5-fluoro-6-(2,2,2-trifluoroethoxy)-3-pyridyl]-3-(methoxymethyl)-7-methyl-[1,2,4]triazolo[4,3-b]pyridazine], the inhibition at 1 µM was less than 30%. For `COCc1nnc2cc(C)c(-c3cnc(O[C@H](C)C(F)(F)F)c(F)c3)nn12` [Compound 72, 6-[5-fluoro-6-[(1R)-2,2,2-trifluoro-1-methyl-ethoxy]-3-pyridyl]-3-(methoxymethyl)-7-methyl-[1,2,4]triazolo[4,3-b]pyridazine], the inhibition at 1 µM is less than 30%.

As for `COC(F)(F)c1nnc2cnc(-c3ccc(OC4CC(F)(F)C4)nc3)cn12` [Compound 73, 3-(difluoro(methoxy)methyl)-6-(6-(3,3-difluorocyclobutoxy)pyridin-3-yl)-[1,2,4]triazolo[4,3-a]pyrazine], the inhibition at 1 µM is more than 70%. With `FC(F)(F)COc1ccc(-c2cn3c(C(F)(F)OC4CC4)nnc3cn2)cn1` [Compound 74, 3-(cyclopropoxydifluoromethyl)-6-(6-(2,2,2-trifluoroethoxy)pyridin-3-yl)-[1,2,4]triazolo[4,3-a]pyrazine], the inhibition at 1 µM is more than 70%.

With `Fc1cc(-c2cn3c(C(F)(F)OC4CC4)nnc3cn2)cnc1OCC(F)(F)F` [Compound 75, 3-(cyclopropoxydifluoromethyl)-6-(5-fluoro-6-(2,2,2-trifluoroethoxy)pyridin-3-yl)-[1,2,4]triazolo[4,3-a]pyrazine], the inhibition at 1 µM was more than 70%. Turning to `COC(F)(F)c1nnc2cnc(-c3cnc(OC4CC(F)(F)C4)c(F)c3)cn12` [Compound 76, 3-(difluoro(methoxy)methyl)-6-(6-(3,3-difluorocyclobutoxy)-5-fluoropyridin-3-yl)-[1,2,4]triazolo[4,3-a]pyrazine], the inhibition at 1 µM is more than 70%. The value for `CCOC(F)(F)c1nnc2cnc(-c3cnc(OC4CC(F)(F)C4)c(F)c3)cn12` [Compound 77, 6-(6-(3,3-difluorocyclobutoxy)-5-fluoropyridin-3-yl)-3-(ethoxydifluoromethyl)-[1,2,4]triazolo[4,3-a]pyrazine] was more than 70%; that for `FC1(F)CC(Oc2ccc(-c3cn4c(C(F)(F)OC5CC5)nnc4cn3)cn2)C1` [Compound 78, 3-(cyclopropoxydifluoromethyl)-6-(6-(3,3-difluorocyclobutoxy)pyridin-3-yl)-[1,2,4]triazolo[4,3-a]pyrazine] was more than 70%. As for `CCOCc1nnc2cnc(-c3cnc(OC(C)(C)C(F)(F)F)c(F)c3)cn12` [Compound 79, 3-(ethoxymethyl)-6-(5-fluoro-6-((1,1,1-trifluoro-2-methylpropan-2-yl)oxy)pyridin-3-yl)-[1,2,4]triazolo[4,3-a]pyrazine], the inhibition at 1 µM was more than 70%.

For `CCOC(F)(F)c1nnc2cnc(-c3ccc(OCC(F)(F)F)nc3)cn12` [Compound 81, 3-(ethoxydifluoromethyl)-6-(6-(2,2,2-trifluoroethoxy)pyridin-3-yl)-[1,2,4]triazolo[4,3-a]pyrazine], the inhibition at 1 µM was more than 70%. For the compound `CC(C)COC(F)(F)c1nnc2cnc(-c3cnc(OCC(F)(F)F)c(F)c3)cn12` [Compound 82, 3-(difluoro(isobutoxy)methyl)-6-(5-fluoro-6-(2,2,2-trifluoroethoxy)pyridin-3-yl)-[1,2,4]triazolo[4,3-a]pyrazine], the inhibition at 1 µM is more than 70%. With `COC(F)(F)c1nnc2ccc(-c3cnc(OC4CC(F)(F)C4)c(F)c3)cn12` [Compound 84, 3-(difluoro(methoxy)methyl)-6-(6-(3,3-difluorocyclobutoxy)-5-fluoropyridin-3-yl)-[1,2,4]triazolo[4,3-a]pyridine], the inhibition at 1 µM was more than 70%. Turning to `CCOC(F)(F)c1nnc2ccc(-c3cnc(OC4CC(F)(F)C4)c(F)c3)cn12` [Compound 85, 6-(6-(3,3-difluorocyclobutoxy)-5-fluoropyridin-3-yl)-3-(ethoxydifluoromethyl)-[1,2,4]triazolo[4,3-a]pyridine], the inhibition at 1 µM was more than 70%. Take `CCOC(F)(F)c1nnc2cnc(-c3ccc(O[C@H](C)C(F)(F)F)nc3)cn12` [Compound 86, (R)-3-(ethoxydifluoromethyl)-6-(6-((1,1,1-trifluoropropan-2-yl)oxy)pyridin-3-yl)-[1,2,4]triazolo[4,3-a]pyrazine]: the inhibition at 1 µM is more than 70%.

Consider `COCc1nnc2ccc(-c3ccc(OC(C)(C)C(F)(F)F)nc3)cn12` [Compound 87, 3-(methoxymethyl)-6-(6-((1,1,1-trifluoro-2-methylpropan-2-yl)oxy)pyridin-3-yl)-[1,2,4]triazolo[4,3-a]pyridine], for which the inhibition at 1 µM is 30 to 70%. Take `CCOC(F)(F)c1nnc2cnc(-c3ccc(OC(C)(C)C(F)(F)F)nc3)cn12` [Compound 88, 3-(ethoxydifluoromethyl)-6-(6-((1,1,1-trifluoro-2-methylpropan-2-yl)oxy)pyridin-3-yl)-[1,2,4]triazolo[4,3-a]pyrazine]: the inhibition at 1 µM was more than 70%. For the compound `COCCOC(F)(F)c1nnc2cnc(-c3ccc(OCC(F)(F)F)nc3)cn12` [Compound 89], the inhibition at 1 µM lay within 30 to 70%.
